Assay results as given in patent publication US20110301155A1, “INDAZOLE COMPOUNDS FOR ACTIVATING GLUCOKINASE” (priority 2007, published 2011).
Where a name gives a salt, the structure may show the parent alone.

Columns and labels:
[1] = biological target: T1, GST-hLGK1 (human liver type GK) (Homo sapiens, UniProt P35557); experiment: Determination of GK activity value (fluorescence assay); type: biochemical; details: test compound 10 μmol/L, 5 mmol/L D-glucose, reaction rate as percentage of control without compound
T1 construct: made in house; host or cells: Escherichia coli BL21 (pGEX6P-2/hLGK1)
T1 sequence (P35557 1-464 isoform P35557-3): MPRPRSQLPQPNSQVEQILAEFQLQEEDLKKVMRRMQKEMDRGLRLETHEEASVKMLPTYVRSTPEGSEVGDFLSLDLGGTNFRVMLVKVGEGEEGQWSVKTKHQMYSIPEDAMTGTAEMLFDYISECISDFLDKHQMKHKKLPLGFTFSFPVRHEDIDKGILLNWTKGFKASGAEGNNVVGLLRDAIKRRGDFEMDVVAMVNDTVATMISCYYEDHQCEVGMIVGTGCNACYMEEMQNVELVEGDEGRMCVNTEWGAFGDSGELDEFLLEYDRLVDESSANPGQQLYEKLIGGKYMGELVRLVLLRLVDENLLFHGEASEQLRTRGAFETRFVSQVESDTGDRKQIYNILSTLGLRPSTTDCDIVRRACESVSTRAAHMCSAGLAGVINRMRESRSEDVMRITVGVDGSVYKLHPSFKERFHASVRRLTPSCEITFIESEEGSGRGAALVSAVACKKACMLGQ
Protocol: Plasmid DNA to be used for the expression of a protein (GST-hLGK1) containing GST (Glutathione S-transferase) added to the amino terminal of human liver type GK in Escherichia coli was prepared as shown below.
BL21 strain (Stratagene) transformed with pGEX6P-2/hLGK1 obtained in Reference Example 1A was cultured with shaking at 37° C. for 14 hr in a 200 ml Erlenmeyer flask containing 50 ml of 100 μg/ml ampicillin-containing LB medium. The culture medium (25 ml) was diluted with 225 ml of 100 μg/ml ampicillin-containing LB medium, and further cultured with shaking at 37° C. for 1 hr in a 1L Erlenmeyer flask. After culture, the Erlenmeyer flask was cooled on ice, 125 μL of 100 mM isopropyl-thio-β-D-galactopyranoside (IPTG) was added (final concentration 50 μM), and cultured at 17° C. for 20 hr. The culture medium was centrifuged, and the obtained fungus was disrupted by ultrasonication. The object protein (GST-hLGK1) was purified from the supernatant using Glutathione Sepharose 4B (Amersham Biosciences. K.K.).
GK enzyme reactions were performed in 50 mmol/L HEPES pH 7.4, 200 mmol/L KCl, 5 mmol/L MgCl2, 2 mmol/L DTT, containing 50 μmol/L 2′-(or-3′)-O-(N-methylanthraniloyl)adenosine 5′-triphosphate (Mant-ATP) (Jena Bioscience GmbH), 5 mmol/L D-glucose, 5% DMSO and 6 μg/mL GST-hLGK1 obtained in Reference Example 2A in a total volume 50 μL. The reactions were performed in 384 well black plates (Nalge Nunc International K.K.). Prior to the reaction, the enzyme and test compound were incubated for 10 min at 37° C., and 25 mM D-glucose solution (10 μL) was added to start the reaction. The final concentration of the test compound is 10 μmol/L. After the incubation for 60 min at 37° C., the reaction was quenched by adding 25 μL of a quenching solution (containing 200 mM HEPES (pH 7.4), 20 mM MgCl2, 200 mM EDTA, 0.03% Triton-X 100, 0.3% Coating 3 reagent (Caliper Life Sciences, Inc.)).
Mant-ATP (substrate, 2′-(or-3′)—O—(N-methylanthraniloyl)adenosine 5′-triphosphate) and Mant-ADP (reaction resultant product) were separated from each well after the reaction by a microchip type capillary electrophoresis apparatus 250 HTS (Caliper Life Sciences, Inc.). The reaction rate [(reaction resultant product peak height)/(reaction resultant product peak height+substrate peak height)×100(%)] was calculated from the ratio of the substrate peak height and reaction resultant product peak height obtained by fluorescence detection (excitation wavelength 355 nm, measurement wavelength 460 nm) and used as the index of GK activity.
As a control group, the reaction rate was calculated in the same manner as above without the test compounds.
The percentage obtained by dividing the reaction rate of the well added with the test compound (test compound addition group) by the reaction rate of the control group was taken as the GK activity value (Emax) of the test compound.

[2] = biological target: T2, GK (recombinant glucokinase, residues 12-465 of the human enzyme) (Homo sapiens, UniProt P35557); experiment: Determination of GK activity value (luminescence assay); type: biochemical; details: calculated maximal gain in GK enzyme activity at saturating compound concentration; 5 mM glucose, 5 μM ATP
T2 construct: FLAG (C-terminal tag of vector pFLAG-CTC; only the vector is printed) (C); made in house; host or cells: Escherichia coli DH10b-T1r (pFLAG-CTC plasmid)
T2 sequence (P35557 12-465): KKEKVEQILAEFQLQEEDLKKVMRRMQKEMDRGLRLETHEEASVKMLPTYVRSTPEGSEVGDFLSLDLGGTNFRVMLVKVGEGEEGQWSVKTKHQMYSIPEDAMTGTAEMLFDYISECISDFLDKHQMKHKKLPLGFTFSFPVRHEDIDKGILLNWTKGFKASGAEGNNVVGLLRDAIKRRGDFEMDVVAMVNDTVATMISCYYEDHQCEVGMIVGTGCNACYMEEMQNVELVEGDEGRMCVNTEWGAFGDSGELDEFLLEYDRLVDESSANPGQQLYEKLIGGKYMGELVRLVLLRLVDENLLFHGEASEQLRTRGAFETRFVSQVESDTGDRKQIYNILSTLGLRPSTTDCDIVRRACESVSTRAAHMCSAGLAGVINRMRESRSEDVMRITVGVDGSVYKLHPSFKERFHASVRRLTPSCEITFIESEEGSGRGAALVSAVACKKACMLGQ
From the text: DNA encoding residues 12-465 of the full-length sequence of the human enzyme may be amplified by PCR and cloned into the HindIII and EcoRI sites of pFLAG-CTC (Sigma). SEQ.I.D. No. 1 corresponds to residues 12-465 of glucokinase.
The expression of recombinant glucokinase protein may be carried out by transformation and growth of DH10b-T1r E. coli cells incorporating the (pFLAG-CTC) plasmid in LB media. Protein expression can be induced in this system by the addition of IPTG to the culture medium.
Recombinant protein may be isolated from cellular extracts by passage over Sepharose Q Fast Flow resin (Pharmacia). This partially purified GK extract may then be further purified by a second passage over Poros HQ10 (Applied Biosystems). The purity of GK may be determined on denaturing SDS-PAGE gel. Purified GK may then be concentrated to a final concentration of 20.0 mg/ml. After flash freezing in liquid nitrogen, the proteins can be stored at −78° C. in a buffer containing 25 mM TRIS-HCl pH 7.6, 50 mM NaCl, and 0.5 mM TCEP.
The activation properties of compounds for GK may be determined using a black 384-well-plate format under the following reaction conditions: 25 mM Hepes pH 7.2, 25 mM NaCl, 10 mM MgCl2, 0.01% Brij35, 1 mM DTT, 5 μM ATP, 5 mM Glucose 2% DMSO. The amount of ATP consumed may be determined quantitatively by addition of equal volume of luciferase reagent (luciferase+beetle luciferin—KinaseGlo Luminescent Kinase Assay kit from Promega). The luminescence intensity may be measured by using the Analyst HT from LJL Biosystems.
The assay reaction may be initiated as follows: 4 μl of substrate mixture (12.5 μM ATP and 12.5 mM Glucose) was added to each well of the plate, followed by the addition of 2 μl of activator (2 fold serial dilutions for 11 data points for each activator) containing 10% DMSO. 4 μL of 1.25 nM GK solution obtained in Reference Example 3A may be added to initiate the reaction. The reaction mixture may then be incubated at room temperature for 60 min, and quenched and developed by addition of 10 μL of luciferase reagent. Luminescence intensities of the resulting reaction mixtures may be measured after a 10 min incubation at room temperature. The luminescence intensity may be measured by using the Analyst HT from LJL Biosystems.
% ACTmax values may be calculated by non-linear curve fitting of the compound concentrations and luminescence intensities to a standard inhibition/activation equation. % ACTmax represents the calculated maximal gain in GK enzyme activity at a saturating concentration of the compound. % ACTmax values for select compounds of the present invention are given in Table 2.

| melting point | Emax at 10 µM [1] | % ACTmax [2] | SMILES |
| --- | --- | --- | --- |
| 150 to 151 °C | 194% |  | CC(C)Cc1cc(OCCc2ccsc2)c2[nH]nc(Nc3nccs3)c2c1 [Example 72, 5-isobutyl-N-1,3-thiazol-2-yl-7-[2-(3-thienyl)ethoxy]-1H-indazole-3-amine] |
| 185 to 187 °C | 231% |  | Clc1cccnc1-c1cc(OCCc2ccccn2)c2[nH]nc(Nc3nccs3)c2c1 [Example 85, 5-(3-chloropyridin-2-yl)-7-(2-pyridin-2-ylethoxy)-N-1,3-thiazol-2-yl-1H-indazole-3-amine] |
| 150 to 153 °C |  |  | COC[C@H](C)Oc1cc(OCCc2ccccn2)c2[nH]nc(Nc3nccs3)c2c1 (as salt: hydrochloride) [Example 108, 5-[(1S)-2-methoxy-1-methylethoxy]-7-(2-pyridin-2-ylethoxy)-N-1,3-thiazol-2-yl-1H-indazole-3-amine dihydrochloride] |
| 190 to 191 °C | 211% |  | CC(C)S(=O)(=O)c1cc(OCCc2ccccn2)c2[nH]nc(Nc3nccs3)c2c1 [Example 117, 5-(isopropylsulfonyl)-7-(2-pyridin-2-ylethoxy)-N-1,3-thiazol-2-yl-1H-indazole-3-amine] |
| > 250 °C | 218% |  | Cn1ccnc1Sc1ccc2[nH]nc(Nc3nccs3)c2c1 [Example 109, 5-[(1-methyl-1H-imidazol-2-yl)thio]-N-1,3-thiazol-2-yl-1H-indazole-3-amine] |
| 217 °C | 186% |  | Clc1cccnc1-c1ccc2[nH]nc(Nc3ncc(CN4CCOCC4)s3)c2c1 [Example 34, 5-(3-chloropyridin-2-yl)-N-[5-(morpholin-4-ylmethyl)-1,3-thiazol-2-yl]-1H-indazole-3-amine] |
| 178 to 180 °C | 202% |  | CCNC(=O)Nc1n[nH]c2ccc(-c3ncccc3Cl)cc12 [Example 101, N-[5-(3-chloropyridin-2-yl)-1H-indazol-3-yl]-N′-ethylurea] |

Continued, molecule first:

| SMILES | melting point | Emax at 10 µM [1] | % ACTmax [2] |
| --- | --- | --- | --- |
| Cn1ccc(Nc2n[nH]c3c(OCCc4ccccn4)cc(-c4ncccc4Cl)cc23)n1 [Example 100, 5-(3-chloropyridin-2-yl)-N-(1-methyl-1H-pyrazol-3-yl)-7-(2-pyridin-2-ylethoxy)-1H-indazole-3-amine] | 89 to 91 °C | 200% |  |
| CCn1nc(Nc2nccs2)c2cc(-c3ncccc3Cl)ccc21 [Example 30, 5-(3-chloropyridin-2-yl)-1-ethyl-N-1,3-thiazol-2-yl-1H-indazole-3-amine] |  | 129% |  |
| CC(C)Oc1cc(Oc2ccc(S(C)(=O)=O)cc2)c2[nH]nc(Nc3ccn(C)n3)c2c1 [Example 133, 5-isopropoxy-N-(1-methyl-1H-pyrazol-3-yl)-7-(4-(methylsulfonyl)phenoxy)-1H-indazol-3-amine] |  |  | 146.3% |
| CCCc1cc(-c2cc3ccccc3s2)c2[nH]nc(Nc3nccs3)c2c1 [Example 28, 7-(1-benzothien-2-yl)-5-propyl-N-1,3-thiazol-2-yl-1H-indazole-3-amine] |  | 231% |  |
| O=S(=O)(c1ccc2[nH]nc(Nc3nccs3)c2c1)N1CCCC1 [Example 20, 5-(pyrrolidin-1-ylsulfonyl)-N-1,3-thiazol-2-yl-1H-indazole-3-amine] |  | 156% |  |
| CC(C)Cc1cc(OCC(=O)N(C)C)c2[nH]nc(Nc3nccs3)c2c1 [Example 73, 2-{[5-isobutyl-3-(1,3-thiazol-2-ylamino)-1H-indazole-7-yl]oxy}-N,N-dimethylacetamide] | 96 to 98 °C | 111% |  |
| Cn1ccc(Nc2n[nH]c3ccc(-c4ncccc4Cl)cc23)n1 [Example 63, 5-(3-chloropyridin-2-yl)-N-(1-methyl-1H-pyrazol-3-yl)-1H-indazole-3-amine] | 190 to 191 °C | 175% |  |
| COC[C@H](C)Oc1cc(OCCc2ccccn2)c2[nH]nc(Nc3nccs3)c2c1 [Example 108, 5-[(1S)-2-methoxy-1-methylethoxy]-7-(2-pyridin-2-ylethoxy)-N-1,3-thiazol-2-yl-1H-indazole-3-amine dihydrochloride] |  | 199% |  |
| Cn1ccc(Nc2n[nH]c3c(Oc4ccc(S(C)(=O)=O)cc4)cc(-c4ncccc4Cl)cc23)n1 [Example 105, 5-(3-chloropyridin-2-yl)-N-(1-methyl-1H-pyrazol-3-yl)-7-[4-(methylsulfonyl)phenoxy]-1H-indazole-3-amine] |  | 140% |  |
